Key:
Assay in all cases: KinaseProfiler Assay
CDK1/cyclinB = CDK1/cyclinB (Homo sapiens, UniProt P06493); assay type: biochemical; details: read-out: CDK1/cyclinB, % of Control
Fes = Fes (Homo sapiens, UniProt P07332); assay type: biochemical; details: read-out: Fes, % of Control
MSK1 = MSK1 (Homo sapiens, UniProt O75582); assay type: biochemical; details: read-out: MSK1, % of Control
Hck = Hck (Homo sapiens, UniProt P08631); assay type: biochemical; details: read-out: Hck, % of Control
TrkA = TrkA (Homo sapiens, UniProt P04629); assay type: biochemical; details: read-out: TrkA, % of Control
IRAK1 = IRAK1 (Homo sapiens, UniProt P51617); assay type: biochemical; details: read-out: IRAK1, % of Control
SGK2 = target: T1, SGK2 (Homo sapiens, UniProt Q9HBY8); assay type: biochemical; details: read-out: SGK2, % of Control
T1 sequence (Q9HBY8 1-367): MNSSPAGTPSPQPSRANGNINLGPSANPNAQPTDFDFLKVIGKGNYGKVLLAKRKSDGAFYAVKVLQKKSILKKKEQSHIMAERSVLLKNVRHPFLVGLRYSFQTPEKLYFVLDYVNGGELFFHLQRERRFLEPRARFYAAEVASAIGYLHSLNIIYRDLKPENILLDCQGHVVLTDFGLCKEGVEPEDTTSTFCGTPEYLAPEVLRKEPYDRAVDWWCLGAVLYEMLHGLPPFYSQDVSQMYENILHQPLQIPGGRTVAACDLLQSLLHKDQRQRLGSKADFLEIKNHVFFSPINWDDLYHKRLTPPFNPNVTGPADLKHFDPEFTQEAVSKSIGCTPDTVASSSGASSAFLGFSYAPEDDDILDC

DAPK2 = DAPK2 (Homo sapiens, UniProt Q9UIK4); assay type: biochemical; details: read-out: DAPK2, % of Control
cKit(D816H) = cKit(D816H) (Homo sapiens, UniProt P10721, D816H); assay type: biochemical; details: read-out: cKit(D816H), % of Control
FGFR2 = FGFR2 (Homo sapiens, UniProt P21802); assay type: biochemical; details: read-out: FGFR2, % of Control
PKA(b) = PKA(b) (Bos taurus, UniProt P00517); assay type: biochemical, human; details: read-out: PKA(b), % of Control
GSK3β = GSK3β (Homo sapiens, UniProt P49841); assay type: biochemical; details: read-out: GSK3β, % of Control
Fgr = Fgr (Homo sapiens, UniProt P09769); assay type: biochemical; details: read-out: Fgr, % of Control
PKA = PKA (Homo sapiens, UniProt P17612); assay type: biochemical; details: read-out: PKA, % of Control
PAK6 = PAK6 (Homo sapiens, UniProt Q9NQU5); assay type: biochemical; details: read-out: PAK6, % of Control
Syk = Syk (Homo sapiens, UniProt P43405); assay type: biochemical; details: read-out: Syk, % of Control
Tie2 = Tie2 (Homo sapiens, UniProt Q02763); assay type: biochemical; details: 50 ug/ml; read-out: Tie2, % of Control
PAK3 = PAK3 (Homo sapiens, UniProt O75914); assay type: biochemical; details: read-out: PAK3, % of Control
MAPK1 = MAPK1 (Homo sapiens, UniProt P27361); assay type: biochemical; details: read-out: MAPK1, % of Control
Pim-2 = Pim-2 (Homo sapiens, UniProt Q9P1W9); assay type: biochemical; details: read-out: Pim-2, % of Control
Chain of Pim-2 (Q9P1W9 whole entry): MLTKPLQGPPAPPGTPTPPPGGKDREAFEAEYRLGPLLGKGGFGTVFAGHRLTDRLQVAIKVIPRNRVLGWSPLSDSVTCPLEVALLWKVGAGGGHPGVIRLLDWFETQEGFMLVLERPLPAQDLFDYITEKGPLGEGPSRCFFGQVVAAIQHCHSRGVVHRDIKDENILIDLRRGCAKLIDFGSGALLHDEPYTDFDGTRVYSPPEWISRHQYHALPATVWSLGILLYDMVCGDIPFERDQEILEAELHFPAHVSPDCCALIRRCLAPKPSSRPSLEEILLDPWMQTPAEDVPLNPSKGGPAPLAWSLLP

Chain of GSK3β (P49841 whole entry): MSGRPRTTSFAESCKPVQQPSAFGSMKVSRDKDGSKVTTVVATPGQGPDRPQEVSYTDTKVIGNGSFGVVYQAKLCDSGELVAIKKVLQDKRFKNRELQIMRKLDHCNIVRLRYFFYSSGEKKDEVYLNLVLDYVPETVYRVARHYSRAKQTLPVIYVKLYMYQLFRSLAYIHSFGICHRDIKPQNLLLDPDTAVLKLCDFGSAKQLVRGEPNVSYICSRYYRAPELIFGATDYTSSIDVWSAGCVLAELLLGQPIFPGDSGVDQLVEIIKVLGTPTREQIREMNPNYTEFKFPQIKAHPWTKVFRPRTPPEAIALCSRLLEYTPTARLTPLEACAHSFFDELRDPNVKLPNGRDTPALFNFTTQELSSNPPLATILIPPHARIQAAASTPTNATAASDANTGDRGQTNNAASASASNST
Chain of DAPK2 (Q9UIK4 whole entry): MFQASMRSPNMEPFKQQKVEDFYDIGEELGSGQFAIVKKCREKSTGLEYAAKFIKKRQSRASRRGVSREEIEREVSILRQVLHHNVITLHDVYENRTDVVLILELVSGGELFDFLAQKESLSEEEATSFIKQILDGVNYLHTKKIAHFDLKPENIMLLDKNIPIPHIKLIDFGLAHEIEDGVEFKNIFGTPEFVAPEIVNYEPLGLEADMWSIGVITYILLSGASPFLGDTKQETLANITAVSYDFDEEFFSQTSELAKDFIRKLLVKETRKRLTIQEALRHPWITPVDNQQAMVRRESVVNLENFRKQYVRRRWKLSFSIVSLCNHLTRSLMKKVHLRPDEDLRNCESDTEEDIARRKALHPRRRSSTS
Chain of MAPK1 (P27361 whole entry): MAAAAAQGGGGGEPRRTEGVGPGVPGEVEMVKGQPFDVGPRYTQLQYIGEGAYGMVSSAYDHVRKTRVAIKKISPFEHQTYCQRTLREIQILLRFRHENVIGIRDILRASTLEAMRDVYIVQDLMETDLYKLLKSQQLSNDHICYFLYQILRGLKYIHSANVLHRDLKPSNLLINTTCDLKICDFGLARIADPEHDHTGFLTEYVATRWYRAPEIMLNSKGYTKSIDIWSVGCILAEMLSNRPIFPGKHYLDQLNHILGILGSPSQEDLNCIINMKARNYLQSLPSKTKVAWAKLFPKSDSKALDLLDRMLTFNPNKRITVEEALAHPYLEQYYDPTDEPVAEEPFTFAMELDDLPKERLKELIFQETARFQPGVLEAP
Chain of PAK6 (Q9NQU5 whole entry): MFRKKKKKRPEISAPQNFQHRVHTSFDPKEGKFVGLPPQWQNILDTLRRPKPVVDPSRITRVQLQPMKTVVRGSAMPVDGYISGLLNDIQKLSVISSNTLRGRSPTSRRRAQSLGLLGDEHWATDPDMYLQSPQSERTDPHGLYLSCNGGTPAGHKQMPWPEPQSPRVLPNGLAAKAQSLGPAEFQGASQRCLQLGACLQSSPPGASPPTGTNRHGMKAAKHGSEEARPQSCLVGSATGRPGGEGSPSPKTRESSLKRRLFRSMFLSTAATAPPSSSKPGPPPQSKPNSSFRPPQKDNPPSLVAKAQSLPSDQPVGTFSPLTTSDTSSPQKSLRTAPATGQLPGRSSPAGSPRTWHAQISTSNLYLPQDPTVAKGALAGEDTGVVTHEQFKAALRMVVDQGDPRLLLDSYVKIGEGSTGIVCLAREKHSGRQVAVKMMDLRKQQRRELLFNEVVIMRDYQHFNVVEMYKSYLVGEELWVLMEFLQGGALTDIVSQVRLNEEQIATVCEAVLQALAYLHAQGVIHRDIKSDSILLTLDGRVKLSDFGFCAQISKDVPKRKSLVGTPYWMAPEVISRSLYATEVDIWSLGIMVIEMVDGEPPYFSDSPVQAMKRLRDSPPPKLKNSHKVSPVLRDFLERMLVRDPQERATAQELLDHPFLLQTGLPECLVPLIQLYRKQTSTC
Chain of cKit(D816H) (P10721 26-976 D816H): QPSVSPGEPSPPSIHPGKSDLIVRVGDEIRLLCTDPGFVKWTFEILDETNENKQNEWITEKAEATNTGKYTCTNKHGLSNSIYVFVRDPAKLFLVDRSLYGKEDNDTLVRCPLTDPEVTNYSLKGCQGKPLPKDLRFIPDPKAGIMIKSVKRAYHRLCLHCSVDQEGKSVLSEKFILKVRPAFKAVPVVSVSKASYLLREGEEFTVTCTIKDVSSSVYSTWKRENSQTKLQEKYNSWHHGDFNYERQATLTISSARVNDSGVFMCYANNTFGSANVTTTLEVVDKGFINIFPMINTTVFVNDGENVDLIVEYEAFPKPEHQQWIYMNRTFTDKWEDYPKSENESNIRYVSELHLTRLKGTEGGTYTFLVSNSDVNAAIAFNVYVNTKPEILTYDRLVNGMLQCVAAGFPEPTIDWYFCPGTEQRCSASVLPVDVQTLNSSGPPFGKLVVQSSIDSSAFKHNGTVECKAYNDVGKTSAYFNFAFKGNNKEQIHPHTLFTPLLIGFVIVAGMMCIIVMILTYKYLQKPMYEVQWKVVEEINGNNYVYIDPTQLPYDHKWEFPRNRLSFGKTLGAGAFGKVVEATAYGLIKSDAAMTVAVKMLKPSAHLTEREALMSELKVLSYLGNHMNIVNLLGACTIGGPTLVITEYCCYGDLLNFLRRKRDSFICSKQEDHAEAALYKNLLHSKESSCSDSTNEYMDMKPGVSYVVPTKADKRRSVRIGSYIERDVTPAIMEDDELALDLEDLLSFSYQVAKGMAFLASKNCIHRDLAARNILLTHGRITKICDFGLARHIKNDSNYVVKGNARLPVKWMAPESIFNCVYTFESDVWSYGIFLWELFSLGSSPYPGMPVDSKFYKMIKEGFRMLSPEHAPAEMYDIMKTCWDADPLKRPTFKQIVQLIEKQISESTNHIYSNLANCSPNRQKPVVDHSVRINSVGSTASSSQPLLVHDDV
Chain of Fes (P07332 whole entry): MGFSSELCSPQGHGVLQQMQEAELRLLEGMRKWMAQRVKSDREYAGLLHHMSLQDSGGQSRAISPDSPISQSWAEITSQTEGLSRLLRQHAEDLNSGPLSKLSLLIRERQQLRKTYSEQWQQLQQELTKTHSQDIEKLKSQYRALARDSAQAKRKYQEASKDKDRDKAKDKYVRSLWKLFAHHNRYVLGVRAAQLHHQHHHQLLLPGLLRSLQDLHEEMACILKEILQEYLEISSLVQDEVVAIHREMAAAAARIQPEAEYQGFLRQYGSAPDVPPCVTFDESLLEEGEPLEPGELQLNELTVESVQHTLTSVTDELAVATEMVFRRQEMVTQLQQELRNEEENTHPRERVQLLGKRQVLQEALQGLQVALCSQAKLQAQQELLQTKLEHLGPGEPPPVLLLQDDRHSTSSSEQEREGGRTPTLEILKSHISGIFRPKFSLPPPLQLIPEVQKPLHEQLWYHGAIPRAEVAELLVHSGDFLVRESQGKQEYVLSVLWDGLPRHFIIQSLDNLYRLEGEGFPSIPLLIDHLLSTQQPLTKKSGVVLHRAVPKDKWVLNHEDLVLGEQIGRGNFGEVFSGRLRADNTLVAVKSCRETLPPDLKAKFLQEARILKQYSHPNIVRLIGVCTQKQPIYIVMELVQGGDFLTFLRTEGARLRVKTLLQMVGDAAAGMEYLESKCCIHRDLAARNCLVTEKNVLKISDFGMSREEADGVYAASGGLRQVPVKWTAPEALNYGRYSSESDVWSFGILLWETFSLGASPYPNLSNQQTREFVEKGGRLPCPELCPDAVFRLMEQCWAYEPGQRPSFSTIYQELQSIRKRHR
Chain of TrkA (P04629 33-796): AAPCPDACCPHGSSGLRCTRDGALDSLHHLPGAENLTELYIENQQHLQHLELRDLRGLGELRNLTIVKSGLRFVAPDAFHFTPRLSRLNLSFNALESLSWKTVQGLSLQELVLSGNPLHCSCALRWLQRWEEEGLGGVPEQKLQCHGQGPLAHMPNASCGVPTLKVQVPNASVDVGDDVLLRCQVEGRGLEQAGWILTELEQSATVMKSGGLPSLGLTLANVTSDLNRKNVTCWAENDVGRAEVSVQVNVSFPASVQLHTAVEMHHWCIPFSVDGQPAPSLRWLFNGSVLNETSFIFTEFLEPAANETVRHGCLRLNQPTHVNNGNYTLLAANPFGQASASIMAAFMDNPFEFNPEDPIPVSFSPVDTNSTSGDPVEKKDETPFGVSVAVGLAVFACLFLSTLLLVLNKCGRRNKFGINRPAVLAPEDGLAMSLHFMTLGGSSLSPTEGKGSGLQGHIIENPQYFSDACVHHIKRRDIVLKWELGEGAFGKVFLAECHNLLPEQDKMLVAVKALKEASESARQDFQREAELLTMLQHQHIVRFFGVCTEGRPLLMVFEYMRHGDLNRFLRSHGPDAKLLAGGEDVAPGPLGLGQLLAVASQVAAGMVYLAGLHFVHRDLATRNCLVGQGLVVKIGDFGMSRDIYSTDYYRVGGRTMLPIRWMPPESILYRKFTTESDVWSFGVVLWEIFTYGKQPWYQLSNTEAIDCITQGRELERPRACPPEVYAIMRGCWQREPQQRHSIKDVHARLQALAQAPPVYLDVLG

Work on `COc1cc(O)c(CC=C(C)C)c(O)c1C(=O)/C=C/c1ccc(O)cc1` [Xanthohumol, xanthohumol] yielded a remaining activity at 1 µg/mL (CDK1/cyclinB; 1 ug/ml) of 118%, a remaining activity at 5 µg/mL (CDK1/cyclinB; 5 ug/ml) of 103% and a remaining activity at 25 µg/mL (CDK1/cyclinB; 25 ug/ml) of 46%. For the same compound, the remaining activity at 50 µg/mL (CDK1/cyclinB; 50 ug/ml) was 18%, the remaining activity at 1 µg/mL (Fes; 1 ug/ml) was 131% and the remaining activity at 5 µg/mL (Fes; 5 ug/ml) was 106%. It also gave a remaining activity at 25 µg/mL (Fes; 25 ug/ml) of 102%, a remaining activity at 50 µg/mL (Fes; 50 ug/ml) of 26% and a remaining activity at 1 µg/mL (MSK1; 1 ug/ml) of 114%. It also gave a remaining activity at 5 µg/mL (MSK1; 5 ug/ml) of 92%, a remaining activity at 25 µg/mL (MSK1; 25 ug/ml) of 31% and a remaining activity at 1 µg/mL (Hck; 1 ug/ml) of 85%. It also gave a remaining activity at 25 µg/mL (Hck; 25 ug/ml) of 17%, a remaining activity at 1 µg/mL (TrkA; 1 ug/ml) of 36% and a remaining activity at 5 µg/mL (TrkA; 5 ug/ml) of 19%. It also gave a remaining activity at 25 µg/mL (TrkA; 25 ug/ml) of 8%, a remaining activity at 50 µg/mL (TrkA; 50 ug/ml) of 3% and a remaining activity at 1 µg/mL (IRAK1; 1 ug/ml) of 129%. It also gave a remaining activity at 5 µg/mL (IRAK1; 5 ug/ml) of 104%, a remaining activity at 50 µg/mL (IRAK1; 50 ug/ml) of 36% and a remaining activity at 1 µg/mL (SGK2; 1 ug/ml) of 130%. It also gave a remaining activity at 5 µg/mL (SGK2; 5 ug/ml) of 110%, a remaining activity at 50 µg/mL (SGK2; 50 ug/ml) of -4% and a remaining activity at 1 µg/mL (DAPK2; 1 ug/ml) of 105%. The remaining activity at 5 µg/mL (DAPK2; 5 ug/ml) was 88%, the remaining activity at 25 µg/mL (DAPK2; 25 ug/ml) was 45% and the remaining activity at 50 µg/mL (DAPK2; 50 ug/ml) was 26%. The remaining activity at 1 µg/mL (cKit(D816H); 1 ug/ml) was 94%, the remaining activity at 5 µg/mL (cKit(D816H); 5 ug/ml) was 45% and the remaining activity at 25 µg/mL (cKit(D816H); 25 ug/ml) was 14%. The remaining activity at 1 µg/mL (FGFR2; 1 ug/ml) was 116%, the remaining activity at 5 µg/mL (FGFR2; 5 ug/ml) was 89% and the remaining activity at 25 µg/mL (FGFR2; 25 ug/ml) was 36%. It also gave a remaining activity at 1 µg/mL (PKA(b); 1 ug/ml) of 137%, a remaining activity at 25 µg/mL (PKA(b); 25 ug/ml) of 33% and a remaining activity at 1 µg/mL (GSK3β; 1 ug/ml) of 120%. It also gave a remaining activity at 5 µg/mL (GSK3β; 5 ug/ml) of 99%, a remaining activity at 25 µg/mL (GSK3β; 25 ug/ml) of 25% and a remaining activity at 50 µg/mL (GSK3β; 50 ug/ml) of 3%. It also gave a remaining activity at 5 µg/mL (Fgr; 5 ug/ml) of 36%, a remaining activity at 25 µg/mL (Fgr; 25 ug/ml) of 10% and a remaining activity at 1 µg/mL (PKA; 1 ug/ml) of 105%. It also gave a remaining activity at 5 µg/mL (PKA; 5 ug/ml) of 109%, a remaining activity at 25 µg/mL (PKA; 25 ug/ml) of 98% and a remaining activity at 50 µg/mL (PKA; 50 ug/ml) of 21%. It also gave a remaining activity at 1 µg/mL (PAK6; 1 ug/ml) of 105%, a remaining activity at 5 µg/mL (PAK6; 5 ug/ml) of 94% and a remaining activity at 25 µg/mL (PAK6; 25 ug/ml) of 14%. For the same compound, the remaining activity at 1 µg/mL (Syk; 1 ug/ml) was 95%, the remaining activity at 5 µg/mL (Syk; 5 ug/ml) was 60% and the remaining activity at 25 µg/mL (Syk; 25 ug/ml) was 32%. It also gave a remaining activity at 50 µg/mL (Syk; 50 ug/ml) of 17%, a remaining activity at 50 µg/mL (Tie2) of 35% and a remaining activity at 1 µg/mL (PAK3; 1 ug/ml) of 21%. The remaining activity at 5 µg/mL (PAK3; 5 ug/ml) was 18%, the remaining activity at 25 µg/mL (PAK3; 25 ug/ml) was 8% and the remaining activity at 5 µg/mL (MAPK1; 5 ug/ml) was 64%. The remaining activity at 25 µg/mL (MAPK1; 25 ug/ml) was 19%, the remaining activity at 50 µg/mL (MAPK1; 50 ug/ml) was 17% and the remaining activity at 1 µg/mL (Pim-2; 1 ug/ml) was 104%. The remaining activity at 5 µg/mL (Pim-2; 5 ug/ml) was 48%, the remaining activity at 25 µg/mL (Pim-2; 25 ug/ml) was 14% and the remaining activity at 50 µg/mL (Pim-2; 50 ug/ml) was 6%.

Reference: US20080051466A1, “Isoalpha acid based protein kinase modulation cancer treatment” (Metaproteomics, LLC, priority 2006, published 2008)
